Results: patent publication EP0694547B1, “2-(2-amino-1,6-dihydro-6-oxo-purin-9-yl)methoxy-1,3-propanediol derivatives” (F. Hoffmann-La Roche AG, priority 1994, dated 1996)
One block for each molecule: values may come before it.

What was measured:
[1] = Determination of oral absorption (bioavailability) in the Cynomolgus monkey; format: in vivo, Male cynomolgus monkeys; details: oral gavage dose equimolar to 10 mg/kg ganciclovir, plasma ganciclovir
Method: Male cynomolgus monkeys weighing 5 to 7 kilos were used. The animals were fed monkey chow, fruit and water and maintained on a 12 hour light cycle. The tested compounds were formulated at a concentration equimolar to a 10 mg/ml solution of ganciclovir in saline. The oral formulation was administered by gavage at a rate of 1.0 ml/kg for a final dose equimolar to a 10 mg/kg dose of ganciclovir. The iv formulation of ganciclovir was formulated in saline containing 0.2% HCl at a concentration of 20 mg/ml and administered at a rate of 0.5 ml/kg.
The animals were fasted beginning the evening prior to dosing and until 4 hr after dosing. […] The blood samples were collected in heparinized syringes and the plasma was immediately isolated by centrifugation and frozen at -20 °C until analysis.
The bioavailability (F) is calculated according to the equation given in Example 9.

[2] = Determination of oral absorption (bioavailability) in the rat
Method: The following assay was used to determine the oral absorption (oral bioavailability) of the compound of Formula I (L-monovaline ester of ganciclovir) and of other ganciclovir amino acid esters, other ganciclovir esters and ethers examined for comparative purposes.
To measure the oral bioavailability of a compound first the plasma level of the compound in male rats was determined after a single oral (po) dose of the compound. […] For ganciclovir the single dose in each case, po and iv, is 10 mg/kg; for a prodrug ester (including the L-monovaline ester of ganciclovir) the single dose in each case, oral and iv, is a dose equimolar to 10 mg/kg of ganciclovir. From the two measurements following po and iv administration, the oral bioavailability of a compound was calculated by dividing the total area under the concentration vs. time curve following p.o. administration by the total area under the concentration vs. time curve following iv administration, appropriately corrected for dose, according to the equation: F(p.o.) (%) = [AUC(p.o.) /AUC(i.v.) ] x [Dose(i.v.) / Dose(p.o.) ] x 100 [formula]
The dose vehicle for oral and intravenous dosing consisted normal saline containing 2 % acetic acid. In both cases the compound concentration was equivalent to 4.0 mg/ml ganciclovir with a dose rate equivalent to 10 mg/kg (2.5 ml/kg) of ganciclovir. A 200 gm rat received 0.5 ml of the oral drug solution by gavage or via injection into the tail vein.
The rats were acclimatized to the laboratory environment for three days and fasted overnight before start of the experiment and until 4 hours after dosing. Blood was collected from 4 rats at each of the following times: 0 min (pre-dose), 5 min (iv only), 15 min, 30 min, 1 hr, 2 hr, 3 hr, 5 hr, 7 hr, 10 hr and 24 hr. The blood was immediately centrifuged to obtain the plasma and the plasma frozen at -20 °C until analysis.
Aliquots of plasma (0.50 ml) were mixed with 0.020 ml of internal standard (acyclovir, 15 µg/ml in 10 % methanol/water) and 3.0 ml of acetonitrile. The mixture was vortexed and the resulting precipitate was removed by centrifugation (4,000 g, 10 min). The supernatant was evaporated to dryness under nitrogen and reconstituted in 200 µl of HPLC mobile phase. Aliquots (0.05 ml) were analyzed by HPLC using a Keystone Hypersil BDS, 250 x 4.6 mm C 18 column. The mobile phase contained 2 % acetonitrile in 30 mM sodium phosphate buffer containing 5 mM heptane sulfonic acid, pH 2.0 and was pumped at 1.0 ml/min. Ganciclovir and internal standard were detected and measured by UV absorbance at 254 nm.

[3] = in vivo, po; cited from earlier work
[4] = relative to acyclovir; cited from earlier work
[5] = format: physicochemical; details: pH 7
Method: Alternatively, the compound of the invention may be prepared using optically active reactants. When pure diastereomers of mono-L-valine ganciclovir are prepared the condensation step (d) is the preferred method of synthesis. However, if optically active reagents are being used it would be important to avoid the pH range above 6, as at the higher pH range interconversion of the free compound of Formula I occurs.

SMILES: CCC(=O)OCC(COC(=O)CC)OCn1cnc2c(=O)[nH]c(N)nc21 [G-bis(propionic acid) ester]
- more bioavailable than ganciclovir itself [3]: about 42%
- ORAL BIOAVAILABILITY (F %) ([2]; rat, in vivo, 1440 min): 17.7%

SMILES: NCC(=O)OCCOCn1cnc2c(=O)[nH]c(N)nc21 [glycyl ester of acyclovir]
- solubility greater than the solubility of acyclovir itself [4]: about 30 fold

SMILES: CC(C)[C@H](N)C(=O)OCC(CO)OCn1cnc2c(=O)nc(N)[nH]c21 (stereo partly drawn) [Formula I, 2-(2-amino-1,6-dihydro-6-oxo-purin-9-yl)methoxy-3-hydroxy-1-propanyl-L-valinate]
- half-life [5]: less than one

More lines, now with the values ahead:

- bioavailability [1]: 9.9%
- bioavailability at 24 h ([2]; rat, plasma, po, 10 mg/kg): 7.9%
SMILES: Nc1nc(O)c2ncn(COC(CO)CO)c2n1 [Ganciclovir, 2-(2-Amino-1,6-dihydro-6-oxo-purin-9-yl)-methoxy-1,3-propanediol]

- ORAL BIOAVAILABILITY (F %) ([2]; male rats, single po and iv dose equimolar to 10 mg/kg ganciclovir, plasma ganciclovir AUC 0-24 hr): non-detectable
SMILES: Nc1nc2c(ncn2COC(COCc2ccccc2)COCc2ccccc2)c(=O)[nH]1 [G-dibenzyl ether]

- ORAL BIOAVAILABILITY (F %) ([2]; rat, in vivo, 1440 min): 98.1%
SMILES: CC(C)[C@H](N)C(=O)OCC(CO)OCn1cnc2c(=O)[nH]c(N)nc21.Cl (stereo partly drawn) [G-L-valinate hydrochloride, 2-(2-Amino-1,6-dihydro-6-oxo-purin-9-yl)methoxy-3-hydroxy-1-propanyl-L-valinate hydrochloride]
